Key:
[1] = tested on: aspirin-induced gastric ulcers in pylorus-ligated rats; experiment: Effect on aspirin-induced gastric ulcers in pylorus-ligated rats; assay type: in vivo; conditions: for Inhibition (aspirin-induced gastric ulcers): 10 rats; for Inhibition (aspirin-induced gastric ulcers) / ED50: 7 hrs after aspirin 100 mg/kg p.o.; for Safety Margin LD50/ED50 (aspirin-induced ulcers): LD50 mice p.o. / ED50 pylorus-ligated rats i.d., Table 2; for ED50: Rattus norvegicus, i.d., pylorus-ligated rats
Experimental: (§1) As illustrative evidence of the remarkable high gastric antisecretory activity of the compounds of the invention, tests were conducted on, and comparisons made with, closely similar compounds in the prior art. The following Tables 2 and 3 show the results of such tests according to previously identified techniques from the literature.
Effect on aspirin-induced gastric ulcers in pylorus-ligated
Each drug was given […] intraduodenally (i.d.) immediately after pyloru
ligation in a volume of 0.5 ml/100 g of body weight. Animals were
sacrificed 7 hrs after aspirin (100 mg/kg, p.o.) administration.

Shay ulceration in rats = experiment: Effect on Shay ulceration in rats; assay type: in vivo; conditions: for Inhibition (Shay ulceration): 10 rats; for Inhibition (Shay ulceration) / ED50: 13 hours after drug treatment; for Safety Margin LD50/ED50 (Shay ulceration): LD50 mice p.o. / ED50 Shay rats i.d., Table 3; for ED50: Rattus norvegicus, i.d., rats
Experimental: as §1
(§2) Effect on Shay ulceration in rats and acute toxicity in mice.
Each drug was given either intraduodenally (i.d.) immediately after
pylorus ligation in a volume of 0.5 ml/100 g of body weight. The animals
were sacrificed 13 hours after drug treatment.

Acute toxicity in mice = conditions: mouse, in vivo, po, Table 2, read-out: LD50 (Table 2, head printed "50 (mg/kg) P.O. Orally")
Experimental: as §1
rats and acute toxicity in mice.
as §2

SMILES	Inhibition (aspirin-induced gastric ulcers) ([1]; 10 mg/kg i.d.)	Inhibition (aspirin-induced gastric ulcers) ([1]; 30 mg/kg i.d.)	Safety Margin LD50/ED50 (aspirin-induced ulcers) [1]	ED50 [1]	Inhibition (Shay ulceration) (Shay ulceration in rats; 10 mg/kg i.d.)	Inhibition (Shay ulceration) (Shay ulceration in rats; 30 mg/kg i.d.)	Safety Margin LD50/ED50 (Shay ulceration) (Shay ulceration in rats)	ED50 (Shay ulceration in rats)	LD50 (Acute toxicity in mice)
NC(=S)C(c1ccccc1)c1cccnn1 (stereo not drawn) [Ex. 1, 2-Phenyl-2-(3-pyridazinyl)thioacetamide]	48.6%	97.7%	85.12	11.5 mg/kg	33.3%	95.8%	78.40	12.5 mg/kg	980 mg/kg
Cc1ccc(C(C(N)=S)c2ccccc2)nn1 (stereo not drawn) [Ex. 2, 2-Phenyl-(6-methyl-3-pyridazinyl)thioacetomide]	3.2%	89.0%	80.95	21 mg/kg	50.0%	91.7%	154.54	11 mg/kg	1700 mg/kg
NC(=S)C(c1ccccc1)c1ncccn1 (stereo not drawn) [U.S. Pat. No. 3,624,085 Ex. 9]	22.3%	74.0%	64.86	18.5 mg/kg	28.2%	65.0%	46.15	26 mg/kg	1200 mg/kg
NC(=S)C(c1ccccc1)c1cnccn1 (stereo not drawn) [U.S. Pat. No. 3,624,085 Ex. 12]	15.4%	50.8%	30.80	30 mg/kg	18.3%	57.7%	33.00	28 mg/kg	924 mg/kg
CCC(C(N)=S)c1ccccn1 (stereo not drawn) [U.S. Pat. No. 3,686,190 Ex. 1]	11.3%	45.7%	12.88	52 mg/kg	12.0%	46.5%	17.70	34 mg/kg	670 mg/kg

From patent publication US4242512A, “Novel thioamide derivatives containing a pyridazine group” (Morishita Pharmaceutical Co., Ltd., priority 1979, dated 1980)
